The first experiment concerns the target T1, vanilloid receptor 1 (VR1/TRPV1 receptor) (Homo sapiens, UniProt Q8NER1).
T1 construct: expressed in transfected cells; host or cells: CHO K1 cells (ECACC), stably transfected
Nature of the experiment: VR1/TRPV1 receptor affinity, capsaicin stimulus (human). The experiment is classed as cell-based, human being. Also on record: key to (f) Ki (human being) [nM] Cap: result in words: AG=agonist; pAG=partial agonist; NE=no effect. The note with it: @ 5 μM, Tables 8-12, read-out: (f) Ki (human being) [nM] Cap: inhibition (as a percentage).
T1 sequence (Q8NER1 whole entry): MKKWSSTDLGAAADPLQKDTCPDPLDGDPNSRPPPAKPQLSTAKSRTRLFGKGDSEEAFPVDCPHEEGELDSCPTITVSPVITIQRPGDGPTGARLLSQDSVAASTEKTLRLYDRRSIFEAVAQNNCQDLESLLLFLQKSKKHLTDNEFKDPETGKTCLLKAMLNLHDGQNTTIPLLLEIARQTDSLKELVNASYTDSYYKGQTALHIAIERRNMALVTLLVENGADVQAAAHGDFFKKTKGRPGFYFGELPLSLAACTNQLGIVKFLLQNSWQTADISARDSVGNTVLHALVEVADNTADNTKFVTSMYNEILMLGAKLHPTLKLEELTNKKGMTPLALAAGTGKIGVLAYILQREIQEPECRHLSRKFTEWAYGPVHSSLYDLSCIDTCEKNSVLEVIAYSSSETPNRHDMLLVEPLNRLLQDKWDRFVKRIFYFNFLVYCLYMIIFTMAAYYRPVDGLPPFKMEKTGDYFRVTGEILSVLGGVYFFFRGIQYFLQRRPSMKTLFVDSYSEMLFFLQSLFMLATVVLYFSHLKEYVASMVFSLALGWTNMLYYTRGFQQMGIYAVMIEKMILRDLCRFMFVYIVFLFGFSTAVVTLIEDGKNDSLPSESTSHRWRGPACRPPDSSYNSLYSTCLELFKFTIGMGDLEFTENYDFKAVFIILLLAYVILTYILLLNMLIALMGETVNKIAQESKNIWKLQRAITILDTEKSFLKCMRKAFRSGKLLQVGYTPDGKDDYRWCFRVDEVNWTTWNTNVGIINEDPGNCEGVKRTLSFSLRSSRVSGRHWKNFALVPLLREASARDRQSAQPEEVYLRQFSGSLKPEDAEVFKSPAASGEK
Turning to `CC(C(=O)NCc1cc(C(F)(F)F)nn1-c1cccc(F)c1)c1ccc(S(C)(=O)=O)c(F)c1` (centres unmarked) [Example D3, 2-(3-Fluoro-4-methylsulfonyl-phenyl)-N-[[2-(3-fluorophenyl)-5-(trifluoromethyl)-2H-pyrazol-3-yl]-methyl]-propionamide], the inhibition at 5 µM was 55%.
Still for that read-out and setting: with `O=C(NCc1cc(C(F)(F)F)nn1-c1cccc(Cl)c1)Nc1ccc(CN2CCCCC2)c(F)c1` [Example B100, 1-[[2-(3-Chlorophenyl)-5-(trifluoromethyl)-2H-pyrazol-3-yl]-methyl]-3-[3-fluoro-4-(piperidin-1-yl-methyl)-phenyl]-urea] the figure was 17%.

Still in this experiment, the particulars now being: Tables 8-12.
With `CC(C(=O)NCc1cc(C(C)(C)C)nn1-c1ccc(F)c(F)c1)c1ccc(CO)c(F)c1` (centres unmarked) [Example A39, N-[[5-tert-Butyl-2-(3,4-difluoro-phenyl)-2H-pyrazol-3-yl]-methyl]-2-[3-fluoro-4-(hydroxymethyl)-phenyl]-propionamide], the “(f) Ki (human being) [nM] Cap: result in words” value was “AG”.
On the same count and under the same terms, in the case of `COc1c(F)cc(C(C)C(=O)NCc2cc(C(C)(C)C)nn2-c2ccc(F)c(Cl)c2)cc1F` (centres unmarked) [Example A5, N-[[5-tert-Butyl-2-(3-chloro-4-fluoro-phenyl)-2H-pyrazol-3-yl]-methyl]-2-(3,5-difluoro-4-methoxy-phenyl)-propionamide] it was “AG”.
Turning to `CC(O)c1ccc(C(C)C(=O)NCc2cc(C(C)(C)C)nn2-c2cccc(Cl)c2)cc1F` (centres unmarked) [Example A98, N-[[5-tert-Butyl-2-(3-chlorophenyl)-2H-pyrazol-3-yl]-methyl]-2-[3-fluoro-4-(1-hydroxy-ethyl)-phenyl]-propionamide], the “(f) Ki (human being) [nM] Cap: result in words” value was “AG”.

Staying with this experiment, now noted: Tables 8-12, read-out: (f) Ki (human being) [nM] Cap.
For `CC(C)c1cccc(-n2nc(C(F)(F)F)cc2CNC(=O)Nc2ccc(CNS(C)(=O)=O)cc2)c1` [Example B83, 1-[[2-(3-isopropyl-phenyl)-5-(trifluoromethyl)-2H-pyrazol-3-yl]-methyl]-3-[4-(methanesulfonamido-methyl)-phenyl]-urea], the inhibition constant (Ki) is 3 nM.
On the same count and under the same terms, with `CC(C(=O)NCc1cc(C(F)(F)F)nn1-c1cccc(Cl)c1)c1ccc(S(C)(=O)=O)c(F)c1` (centres unmarked) [Example D2, N-[[2-(3-Chlorophenyl)-5-(trifluoromethyl)-2H-pyrazol-3-yl]-methyl]-2-(3-fluoro-4-methylsulfonyl-phenyl)-propionamide] the figure was 73 nM; with `CS(=O)(=O)NCc1ccc(CC(=O)NCc2cc(C(F)(F)F)nn2-c2cccc(F)c2)cc1F` [Example B37, 2-[3-Fluoro-4-(methanesulfonamido-methyl)-phenyl]-N-[[2-(3-fluorophenyl)-5-(trifluoromethyl)-2H-pyrazol-3-yl]-methyl]-acetamide], 46 nM; with “4-[1-[[5-tert-Butyl-2-(3-chlorophenyl)-2H-pyrazol-3-yl]-methyl-carbamoyl]-ethyl]-N-phenyl-benzamide [Example E27]”, 2 nM.
Same read-out and setting: with `CC(C(=O)NCc1cc(C(C)(C)C)nn1-c1cccc(F)c1)c1ccc(CS(C)(=O)=O)c(F)c1` (centres unmarked) [Example D9, N-[[5-tert-Butyl-2-(3-fluorophenyl)-2H-pyrazol-3-yl]-methyl]-2-[3-fluoro-4-(methylsulfonyl-methyl)-phenyl]-propionamide] the figure was 30 nM.
As to `CC(C)(C)c1cc(CNC(=O)Nc2ccc(CNS(N)(=O)=O)cc2)n(-c2cccc(Cl)c2)n1` [Example B36, 1-[[5-tert-Butyl-2-(3-chlorophenyl)-2H-pyrazol-3-yl]-methyl]-3-[4-[(sulfamoylamino)-methyl]-phenyl]-urea], the Ki was determined as 6 nM.
Still for that read-out and setting: in the case of “4-[[[2-(3-Chlorophenyl)-5-(trifluoromethyl)-2H-pyrazol-3-yl]-methyl-carbamoyl]-methyl]-N-(4-fluorophenyl)-benzamide [Example E36]” it was 14 nM.
The same measure, in the same setting: with `CCC(=O)c1ccc(C(C)C(=O)NCc2cc(C(F)(F)F)nn2-c2cccc(F)c2)cc1F` (centres unmarked) [Example E1, N-[[2-(3-Fluorophenyl)-5-(trifluoromethyl)-2H-pyrazol-3-yl]-methyl]-2-(3-fluoro-4-propanoyl-phenyl)-propionamide] the figure was 24 nM; with `CC(C(=O)NCc1cc(C(F)(F)F)nn1-c1cccc(F)c1)c1ccc(CS(C)(=O)=O)c(F)c1` (centres unmarked) [Example D10, 2-[3-Fluoro-4-(methylsulfonyl-methyl)-phenyl]-N-[[2-(3-fluorophenyl)-5-(trifluoromethyl)-2H-pyrazol-3-yl]-methyl]-propionamide], 75 nM.
Still for that read-out and setting: with `CNCc1ccc(NC(=O)NCc2cc(C(F)(F)F)nn2-c2cccc(Cl)c2)cc1` [Example B14, 1-[[2-(3-Chlorophenyl)-5-(trifluoromethyl)-2H-pyrazol-3-yl]-methyl]-3-[4-(methylamino-methyl)-phenyl]-urea] the figure was 64 nM.
Take “4-[[[5-tert-Butyl-2-(3-chlorophenyl)-2H-pyrazol-3-yl]-methyl-carbamoyl]-methyl]-N-(4-fluorophenyl)-benzamide [Example E37]”: the Ki is 5 nM.
Still for that read-out and setting: with `CC(C)(C)c1cc(CNC(=O)Nc2ccc(CNS(N)(=O)=O)c(F)c2)n(-c2cccc(F)c2)n1` [Example B59, 1-[[5-tert-Butyl-2-(3-fluorophenyl)-2H-pyrazol-3-yl]-methyl]-3-[3-fluoro-4-[(sulfamoylamino)-methyl]-phenyl]-urea] the figure was 16 nM; with `NS(=O)(=O)NCc1ccc(NC(=O)NCc2cc(C(F)(F)F)nn2-c2cccc(Cl)c2)cc1F` [Example B41, 1-[[2-(3-Chlorophenyl)-5-(trifluoromethyl)-2H-pyrazol-3-yl]methyl]-3-[3-fluoro-4-[(sulfamoylamino)-methyl]-phenyl]-urea], 74 nM.
`CS(=O)(=O)CCc1ccc(NC(=O)NCc2cc(C3CC3)nn2-c2cccc(Cl)c2)cc1F` [Example D26, 1-[[2-(3-Chlorophenyl)-5-cyclopropyl-2H-pyrazol-3-yl]-methyl]-3-[3-fluoro-4-(2-methylsulfonyl-ethyl)-phenyl]-urea]: the inhibitory constant (Ki) stood at 42 nM.
On to `CC(C)(C)c1cc(CNC(=O)Cc2ccc(CNS(C)(=O)=O)c(F)c2)n(-c2cccc(Cl)c2)n1` [Example B26, N-[[5-tert-Butyl-2-(3-chlorophenyl)-2H-pyrazol-3-yl]-methyl]-2-[3-fluoro-4-(methanesulfonamido-methyl)-phenyl]-acetamide], for which the Ki was determined as 12 nM.
Same read-out and setting: with “4-[[[5-tert-Butyl-2-(3-chlorophenyl)-2H-pyrazol-3-yl]-methyl-carbamoyl]amino]-2-methoxy-benzamide [Example E7]” the figure was 66 nM; with `CC(C(=O)NCc1cc(C(C)(C)C)nn1-c1ccc(F)c(F)c1)c1ccc(CNS(C)(=O)=O)c(F)c1` (centres unmarked) [Example B10, N-[[5-tert-Butyl-2-(3,4-difluoro-phenyl)-2H-pyrazol-3-yl]-methyl]-2-[3-fluoro-4-(methanesulfonamido-methyl)-phenyl]-propionamide], 6 nM.
Same read-out and setting: with `O=C(NCc1cc(C(F)(F)F)nn1-c1cccc(Cl)c1)Nc1ccc(N2CCOCC2)c(F)c1` [Example C5, 1-[[2-(3-Chlorophenyl)-5-(trifluoromethyl)-2H-pyrazol-3-yl]-methyl]-3-(3-fluoro-4-morpholin-4-yl-phenyl)-urea] the figure was 44 nM.

As usually defined, the inhibition is the share of the control response that was lost under treatment. As usually defined, the Ki is the dissociation constant of the complex between target and ligand, obtained from inhibition or displacement.

Source of the values: patent publication US9624209B2, “Substituted phenylureas and phenylamides as vanilloid receptor ligands” (Gruenenthal GmbH, priority 2009, dated 2017).
